The values below come from patent US10766909B2, “Process for preparing halogenated pyridine derivatives” (Bayer CropScience Aktiengesellschaft, priority 2016, dated 2020).

This series is described as follows: log P by HPLC-MS. The series is classed as physicochemical.
For orientation: chromatographic logP means a lipophilicity value derived from retention on a column. A lower chromatographic logP goes with a more hydrophilic compound. In turn, `Fc1ccc(Cl)nc1I` [Example 1, 6-chloro-3-fluoro-2-iodopyridine] registered a chromatographic logP of 2.53.
Under `COC(=O)c1ccc(F)c(I)n1` [Example 2, methyl 5-fluoro-6-iodopyridine-2-carboxylate] stands 1.85; under `Fc1ccc(Br)nc1I` [Example 3, 6-bromo-3-fluoro-2-iodopyridine], 2.67.
